Article PMC11638965, “Leveraging Dual-Ligase Recruitment to Enhance Protein Degradation via a Heterotrivalent Proteolysis Targeting Chimera” (Journal of the American Chemical Society, 2024)
Entries after “also recorded” stand apart in the source; their conditions may differ. Read-outs that look alike come from different tables or passages of the source.

How the values were obtained:
BRD3 = target: T1, BRD3 (Homo sapiens, UniProt Q15059); test: Live cell kinetic HiBiT degradation assay, HiBiT-BRD3 HEK293 cells; format: cell-based; conditions: for DC50: HiBiT-BRD3 CRISPR knock-in HEK293 cells, live cell kinetic degradation, 24 h, read-out: Dmax 50 BRD3; for λmax BRD3 (degradation rate): HiBiT-BRD3 knock-in HEK293 cells
T1 construct: HiBiT, is appended to the N-terminus of endogenous BRD2, BRD3, and BRD4; endogenous in cells
T1 sequence (Q15059 whole entry): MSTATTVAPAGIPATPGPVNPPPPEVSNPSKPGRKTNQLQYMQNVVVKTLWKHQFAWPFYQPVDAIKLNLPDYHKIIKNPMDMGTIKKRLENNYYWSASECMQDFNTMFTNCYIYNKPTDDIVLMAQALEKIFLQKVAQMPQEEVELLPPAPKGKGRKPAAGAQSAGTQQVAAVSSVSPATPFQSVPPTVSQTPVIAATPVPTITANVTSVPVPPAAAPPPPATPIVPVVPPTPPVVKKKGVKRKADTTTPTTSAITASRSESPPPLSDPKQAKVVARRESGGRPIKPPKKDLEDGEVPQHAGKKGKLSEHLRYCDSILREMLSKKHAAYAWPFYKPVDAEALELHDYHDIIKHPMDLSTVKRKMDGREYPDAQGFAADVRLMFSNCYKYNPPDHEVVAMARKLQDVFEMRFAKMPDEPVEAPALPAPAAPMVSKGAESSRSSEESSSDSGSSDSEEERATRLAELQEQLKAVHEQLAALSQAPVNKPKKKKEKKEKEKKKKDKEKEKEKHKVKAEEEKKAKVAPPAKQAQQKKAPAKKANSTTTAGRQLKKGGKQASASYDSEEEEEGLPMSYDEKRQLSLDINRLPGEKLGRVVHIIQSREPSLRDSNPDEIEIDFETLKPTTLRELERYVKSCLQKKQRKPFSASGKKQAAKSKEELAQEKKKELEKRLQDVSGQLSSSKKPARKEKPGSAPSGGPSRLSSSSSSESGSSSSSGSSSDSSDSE
Protocol: (§1) HEK293 HiBiT-BRD2 (LgBiT stable), HEK293 HiBiT-BRD3 (LgBiT stable), and HEK293 HiBiT-BRD4 (LgBiT stable) were created using CRISPR/Cas9 to insert at HiBiT tag at the N-terminal genomic loci of BRD2, BRD3, or BRD4 in a cell line stably expressing LgBiT protein as described previously.[23]
(§2) For kinetic degradation experiments, HEK293 HiBiT-BRD2, 3, or 4 (LgBiT stable) cells and HEK293 HiBiT-BRD4 (LgBiT) CRBN KO and VHL KO cells were plated at 20,000 cells/well in DMEM +10% FBS in white 96-well tissue culture plates and allowed to adhere overnight. The next day, media was removed and 90 μL of prewarmed CO2-independent medium (Gibco) containing Endurazine (Promega) at a 1:100 dilution from stock was added. Plates were incubated at 37 °C for 3 h to allow luminescence to equilibrate. A threefold dilution series of each PROTAC at 10x the desired final concentration was prepared (with the amount of DMSO in each treatment condition kept constant). After luminescence equilibration, a preread luminescence measurement was taken (prior to compound addition) to allow for baseline normalization to account for possible plating differences. Cells were then treated with 10 μL of the prepared PROTAC dilution series (in triplicate or quadruplicate). Treated plates were placed in a GloMax Discover luminometer (Promega) prewarmed to 37 °C and luminescence measurements were obtained every 7 min for 24 h. Kinetic degradation plots were obtained by first normalizing time course luminescence readings in each well to the preread measurement, then to the average value of the DMSO only control at each time point. Data was analyzed using GraphPad Prism (version 8) and excel. Dmax values were identified as the lowest luminescence reading in each well. Rate constant values were calculated using a one phase exponential decay Y = (Y0-Plateau) e(K*^X) + Plateau using Prism (Y0 constrained to 1). Dmax 50 values were calculated by plotting Dmax as a function of concentration, then fitting plots using the following equation: [drawing 1] to determine IC50.

BRD4 = BRD4 (Homo sapiens, UniProt O60885); test: Live cell kinetic HiBiT degradation assay, HiBiT-BRD4 HEK293 cells (parental, CRBN KO, VHL KO); format: cell-based; conditions: for EC50: HiBiT-BRD4 CRISPR knock-in HEK293 cells, live cell kinetic degradation, 24 h, read-out: Dmax 50 BRD4; for λmax BRD4 (degradation rate): HiBiT-BRD4 knock-in HEK293 cells; for on-target BRD4 degradation activity (in words): parental, CRBN KO and VHL KO HiBiT-BRD4 HEK293 cells (Figure S5)
Protocol: as §1, §2
HiBiT-BRD4 (LgBiT stable) HEK293 cells (Promega) were used to generate both VHL KO HiBiT-BRD4 (LgBiT stable) and CRBN KO HiBiT-BRD4 (LgBiT stable) cell lines. For VHL, gRNAs targeting exon 1 ([…]) and exon 2 ([…]) and for CRBN, gRNAs targeting exon 3 ([…]) and exon 6 ([…]) were purchased from IDT DNA (Table 5). For each gRNA, tracrRNA/crRNA duplexes were formed by combining 10 μL of 100 μM Alt-R […] (IDT), 100 μM Alt-R crRNA (IDT) and heating at 95C for 5 min, then were allowed to cool to room temp for 20 min. RNPs were then formed by combining 75 pmol Cas9 (IDT) with 2.4 μL total of prepared tracrRNA/crRNA complex (1.2 μL for each gRNA targeting each exon). Cells were then trypsinized and resuspended at 10,000,000 cells/mL in 1 mL of Mirus Ingenio electroporation solution. Three μL of 100 μM electroporation enhancer (Mirus) was added, along with 3 μL of RNP solution. Cells were electroporated in 2 mm cuvettes using a BioRad system (190 V, 950 μF, infinite resistance) and were then plated in a T75 flask in full growth medium to allow for recovery. After recovery from electroporation, knockout pools were sorted for single cells in 96-well tissue culture treated plates. Clonal populations which expanded from single cells were then screened for loss of function of VHL by treating with MZ1, or loss of function of CRBN by treating with dBET6, using a HiBiT-BRD4 luminescent readout assay. Genomic DNA isolated from candidate clones was then PCR-amplified (Table of primers below), Gibson-assembled into a pF1A plasmid backbone, transformed into E. coli., and then Sanger sequenced to confirm presence of indels in the targeted exons. […] VHL exon 3 carried a 19 bp deletion on one allele, and a 1 bp insertion on the other allele, both occurring after the premature stop codon in exon 1.

RKO WT cells = test: cells; format: cell-based, human; conditions: Homo sapiens
Protocol: RKO WT, VHL KO, CRBN KO and CRBN/VHL dKO cells were cultured in Dulbecco’s modified Eagle’s medium supplemented with 10% FCS and 1% penicillin–streptomycin. RKO CRBN KO and VHL KO were generated previously.[45] RKO CRBN/VHL dKO cells were generated by transiently expressing pSpCas9(BB)-2A-GFP (PX458) (Addgene 48138) loaded with a short guide RNA (sgRNA) targeting VHL (Fwd: […], Rev: […]) in RKO CRBN KO cells. Clones were single cell seeded and checked for VHL and CRBN double deletion via Western blot or PCR on genomic DNA (gDNA).
Cells were seeded in 96-well plates at a cell density of 3750 cells per well and treated for 3 days with DMSO or drug at ten √10 serial diluted concentrations. […] Cell viability was assessed using the CellTiter-Glo assay (CellTiter-Glo Luminescent Cell Viability Assay, Promega G7573) according to manufacturer instructions. Luminescence signal was measured on a Multilabel Plate Reader Platform Victor X3 model 2030 (PerkinElmer). Survival curves and EC50 values were determined using GraphPad Prism v.10.0.3 by fitting a nonlinear regression to the log10-transformed drug concentration and the relative viability after normalization of each data point to the mean luminescence of the lowest drug concentration.

[1] = WT RKO, 316 pM to 10 μM, n = 3 (Table S4), read-out: EC50 RKO
[2] = 72 h, 500 pM to 10 μM, 3 days (Figure 10, Table S6), read-out: EC50 RKO WT

Structure (SMILES) | DC50 (BRD3) [nM] | λmax BRD3 (degradation rate) (BRD3) [h⁻¹] | EC50 (BRD4) [nM] | λmax BRD4 (degradation rate) (BRD4) [h⁻¹] | EC50 (RKO WT cells; [1]) [nM] | EC50 (RKO WT cells; [2]) [nM] | further results
Cc1ncsc1-c1ccc(CNC(=O)[C@@H]2C[C@@H](O)CN2C(=O)[C@@H](NC(=O)COCC(C)(COCCOCCOCCOC(=O)C[C@@H]2N=C(c3ccc(Cl)cc3)c3c(sc(C)c3C)-n3c(C)nnc32)COCCOCCOCCN2CCN(c3cccc4c3C(=O)N(C3CCC(=O)NC3=O)C4=O)CC2)C(C)(C)C)cc1 (mixture of isomers) [AB3029 (31), (17S)-11-((2-(2-(2-(4-(2-(2,6-dioxopiperidin-3-yl)-1,3-dioxoisoindolin-4-yl)piperazin-1-yl)ethoxy)ethoxy)ethoxy)methyl)-17-((2S,4R)-4-hydroxy-2-((4-(4-methylthiazol-5-yl)benzyl)carbamoyl)pyrrolidine-1-carbonyl)-11,18,18-trimethyl-15-oxo-3,6,9,13-tetraoxa-16-azanonadecyl 2-((S)-4-(4-chlorophenyl)-2,3,9-trimethyl-6H-thieno[3,2-f][1,2,4]triazolo[4,3-a][1,4]diazepin-6-yl)acetate] | 6.2 | 2.36 | 15 | 1.99 | 1020 |  | 
Cc1ncsc1-c1ccc([C@H](C)NC(=O)[C@@H]2C[C@H](O)CN2C(=O)[C@@H](NC(=O)COCC(C)(COCCOCCOCCNc2cc3c(cc2F)C(=O)N(C2CCC(=O)NC2=O)C3=O)COCCOCCOCCOC(=O)C[C@@H]2N=C(c3ccc(Cl)cc3)c3c(sc(C)c3C)-n3c(C)nnc32)C(C)(C)C)cc1 (mixture of isomers) [cis-AB3067 (94), (17S)-11-((2-(2-(2-((2-(2,6-dioxopiperidin-3-yl)-6-fluoro-1,3-dioxoisoindolin-5-yl)amino)ethoxy)ethoxy)ethoxy)methyl)-17-((2S,4S)-4-hydroxy-2-(((S)-1-(4-(4-methylthiazol-5-yl)phenyl)ethyl)carbamoyl)pyrrolidine-1-carbonyl)-11,18,18-trimethyl-15-oxo-3,6,9,13-tetraoxa-16-azanonadecyl 2-((S)-4-(4-chlorophenyl)-2,3,9-trimethyl-6H-thieno[3,2-f][1,2,4]triazolo[4,3-a][1,4]diazepin-6-yl)acetate] |  |  |  |  |  | 48 | on-target BRD4 degradation activity (in words) (BRD4; listed as 94): inactive in CRBN KO cells; also recorded: increase in degradation potency relative to 27 in both parental and VHL KO cells
Cc1ncsc1-c1ccc(CNC(=O)[C@@H]2C[C@@H](O)CN2C(=O)[C@@H](NC(=O)COCC(COCCOCCOCCNc2cc3c(cc2F)C(=O)N(C2CCC(=O)NC2=O)C3=O)(COCCOCCOCCOC(=O)C[C@@H]2N=C(c3ccc(Cl)cc3)c3c(sc(C)c3C)-n3c(C)nnc32)COCCOCCOCCOC(=O)C[C@@H]2N=C(c3ccc(Cl)cc3)c3c(sc(C)c3C)-n3c(C)nnc32)C(C)(C)C)cc1 (mixture of isomers) [AB3124 (86)] |  |  | 1.1 |  |  |  | treatment concentrations with observable hook-effect (BRD4; HiBiT-BRD4 HEK293 cells): ≥ 333 nM; BRD4 degradation rate (in words) (BRD4; HiBiT-BRD4 HEK293 cells (Figure S4)): remarkably slow compared to the rapid degradation mediated by 27; Dmax (BRD4; HiBiT-BRD4 HEK293 cells, read-out: final Dmax less than for 26 and 27): > 10%; EC50 (RKO WT cells; 72 h, 316 pM to 10 μM, 3 days, n = 3 (Figures 5 and 8C, Table S5), read-out: EC50 RKO WT): 33 nM

Continued, in another order:

DC50 (BRD3) [nM] | λmax BRD3 (degradation rate) (BRD3) [h⁻¹] | EC50 (BRD4) [nM] | λmax BRD4 (degradation rate) (BRD4) [h⁻¹] | EC50 (RKO WT cells; [1]) [nM] | EC50 (RKO WT cells; [2]) [nM] | Structure (SMILES) | further results
 |  |  |  |  | 594 | Cc1ncsc1-c1ccc([C@H](C)NC(=O)[C@@H]2C[C@H](O)CN2C(=O)[C@@H](NC(=O)COCC(C)(COCCOCCOCCNc2cc3c(cc2F)C(=O)N(C2CCC(=O)N(C)C2=O)C3=O)COCCOCCOCCOC(=O)C[C@@H]2N=C(c3ccc(Cl)cc3)c3c(sc(C)c3C)-n3c(C)nnc32)C(C)(C)C)cc1 (mixture of isomers) [neg-cis-AB3067 (95), (17S)-11-((2-(2-(2-((6-fluoro-2-(1-methyl-2,6-dioxopiperidin-3-yl)-1,3-dioxoisoindolin-5-yl)amino)ethoxy)ethoxy)ethoxy)methyl)-17-((2S,4S)-4-hydroxy-2-(((S)-1-(4-(4-methylthiazol-5-yl)phenyl)ethyl)carbamoyl)pyrrolidine-1-carbonyl)-11,18,18-trimethyl-15-oxo-3,6,9,13-tetraoxa-16-azanonadecyl 2-((S)-4-(4-chlorophenyl)-2,3,9-trimethyl-6H-thieno[3,2-f][1,2,4]triazolo[4,3-a][1,4]diazepin-6-yl)acetate] | on-target BRD4 degradation activity (in words) (BRD4): no degradation of BRD4 in any of the cell lines; EC50 (RKO WT cells; RKO, span over RKO WT, CRBN KO, VHL KO and CRBN/VHL dKO (Figure 10), read-out: EC50s in each WT, KO and dKO RKO cell line): 522 to 657 nM
1.9 | 2.62 | 4 | 1.69 | 195 |  | Cc1ncsc1-c1ccc(CNC(=O)[C@@H]2C[C@@H](O)CN2C(=O)[C@@H](NC(=O)COCC(C)(COCCOCCNc2cc3c(cc2F)C(=O)N(C2CCC(=O)NC2=O)C3=O)COCCOCCOCCOC(=O)C[C@@H]2N=C(c3ccc(Cl)cc3)c3c(sc(C)c3C)-n3c(C)nnc32)C(C)(C)C)cc1 (mixture of isomers) [AB3126 (29), (17S)-11-((2-(2-((2-(2,6-dioxopiperidin-3-yl)-6-fluoro-1,3-dioxoisoindolin-5-yl)amino)ethoxy)ethoxy)methyl)-17-((2S,4R)-4-hydroxy-2-((4-(4-methylthiazol-5-yl)benzyl)carbamoyl)pyrrolidine-1-carbonyl)-11,18,18-trimethyl-15-oxo-3,6,9,13-tetraoxa-16-azanonadecyl 2-((S)-4-(4-chlorophenyl)-2,3,9-trimethyl-6H-thieno[3,2-f][1,2,4]triazolo[4,3-a][1,4]diazepin-6-yl)acetate] | 
